# Source: patent publication US20080292561A1, “Pyrazolo-Pyrimidine Derivatives as Anti-Inflammatory Agents” (Glaxo Group Limited, priority 2005, published 2008)
# Tested on: NFkB activity
# Test: Glucocorticoid mediated transrepression of NFkB activity (A549 cells, ELAM promoter alkaline phosphatase reporter, TNFα)
# Type: cell-based
# Conditions: Homo sapiens, A549, 16 h, Human A549 lung epithelial cells, 3 ng/ml human recombinant TNFα, read-out: pIC50, transrepression of NFkB activity (converted)
# Excerpt: Human A549 lung epithelial cells were engineered to contain a secreted placental alkaline phosphatase gene under the control of the distal region of the NFkB dependent ELAM promoter as previously described in Ray, K. P., Farrow, S., Daly, M., Talabot, F. and Searle, N. “Induction of the E-selectin promoter by interleukin 1 and tumour necrosis factor alpha, and inhibition by glucocorticoids” Biochemical Journal (1997) 328: 707-15.
# Compounds were solvated and diluted in DMSO, and transferred directly into assay plates such that the final concentration of DMSO was 0.7%. Following the addition of cells (40K per well), plates were incubated for 1 hr prior to the addition of 3 ng/ml human recombinant TNFα. Following continued incubation for 16 hr, alkaline phosphatase activity was determined by measuring the change in optical density at 405 nm with time following the addition of 0.7 volumes of assay buffer (1 mg/ml p-nitrophenylphosphate dissolved in 1M diethanolamine, 0.28M NaCl, 0.5 mM MgCl2). Dose response curves were constructed from which EC50 values were estimated.
row,IC50 [nM],SMILES
1,< 100,"Cc1nc(NCC(O)(CC(C)(C)c2cc(F)ccc2O)C(F)(F)F)c2cnn(-c3ccc(F)cc3F)c2n1 (single isomer, unassigned) [Example 25, 2-[3-({[1-(2,4-Difluorophenyl)-6-methyl-1H-pyrazolo[3,4-d]pyrimidin-4-yl]amino}methyl)-4,4,4-trifluoro-3-hydroxy-1,1-dimethylbutyl]-4-fluorophenol]"
2,< 100,"Cc1nc(NCC(O)(CC(C)(C)c2cccc3c2OCC3)C(F)(F)F)c2cnn(-c3ccccc3)c2n1 (stereo not shown) [Example 1, 4-(2,3-Dihydro-1-benzofuran-7-yl)-1,1,1-trifluoro-4-methyl-2-{[(6-methyl-1-phenyl-1H-pyrazolo[3,4-d]pyrimidin-4-yl)amino]methyl}-2-pentanol]"
3,< 100,"Cc1nc(NCC(O)(CC(C)(C)c2cccc3c2OCC3)C(F)(F)F)c2cnn(-c3ccccc3F)c2n1 (stereo not shown) [Example 2, 4-(2,3-Dihydro-1-benzofuran-7-yl)-1,1,1-trifluoro-2-({[1-(2-fluorophenyl)-6-methyl-1H-pyrazolo[3,4-d]pyrimidin-4-yl]amino}methyl)-4-methyl-2-pentanol]"
4,< 100,"Cc1nc(NCC(O)(CC(C)(C)c2cccc3c2OCC3)C(F)(F)F)c2cnn(-c3ccc(F)cc3)c2n1 (stereo not shown) [Example 3, 4-(2,3-Dihydro-1-benzofuran-7-yl)-1,1,1-trifluoro-2-({[1-(4-fluorophenyl)-6-methyl-1H-pyrazolo[3,4-d]pyrimidin-4-yl]amino}methyl)-4-methyl-2-pentanol]"
5,< 100,"Cc1nc(NCC(O)(CC(C)(C)c2cccc3c2OCC3)C(F)(F)F)c2cnn(-c3ccc(F)cc3F)c2n1 (stereo not shown) [Example 4, 2-({[1-(2,4-Difluorophenyl)-6-methyl-1H-pyrazolo[3,4-d]pyrimidin-4-yl]amino}methyl)-4-(2,3-dihydro-1-benzofuran-7-yl)-1,1,1-trifluoro-4-methyl-2-pentanol]"
6,< 100,"CCc1nc(NCC(O)(CC(C)(C)c2cccc3c2OCC3)C(F)(F)F)c2cnn(-c3ccccc3)c2n1 (stereo not shown) [Example 5, 4-(2,3-Dihydro-1-benzofuran-7-yl)-2-{[(6-ethyl-1-phenyl-1H-pyrazolo[3,4-d]pyrimidin-4-yl)amino]methyl}-1,1,1-trifluoro-4-methyl-2-pentanol]"
7,< 100,"CCc1nc(NCC(O)(CC(C)(C)c2cccc3c2OCC3)C(F)(F)F)c2cnn(-c3ccccc3F)c2n1 (stereo not shown) [Example 6, 4-(2,3-Dihydro-1-benzofuran-7-yl)-2-({[6-ethyl-1-(2-fluorophenyl)-1H-pyrazolo[3,4-d]pyrimidin-4-yl]amino}methyl)-1,1,1-trifluoro-4-methyl-2-pentanol]"
8,< 100,"CCc1nc(NCC(O)(CC(C)(C)c2cccc3c2OCC3)C(F)(F)F)c2cnn(-c3ccc(F)cc3)c2n1 (stereo not shown) [Example 7, 4-(2,3-Dihydro-1-benzofuran-7-yl)-2-({[6-ethyl-1-(4-fluorophenyl)-1H-pyrazolo[3,4-d]pyrimidin-4-yl]amino}methyl)-1,1-trifluoro-4-methyl-2-pentanol]"
9,< 100,"CCc1nc(NCC(O)(CC(C)(C)c2cccc3c2OCC3)C(F)(F)F)c2cnn(-c3ccc(F)cc3F)c2n1 (stereo not shown) [Example 8, 2-({[1-(2,4-Difluorophenyl)-6-ethyl-1H-pyrazolo[3,4-d]pyrimidin-4-yl]amino}methyl)-4-(2,3-dihydro-1-benzofuran-7-yl)-1,1,1-trifluoro-4-methyl-2-pentanol]"
10,< 100,"CCc1nc(NCC(O)(CC(C)(C)c2cccc3c2OCC3)C(F)(F)F)c2cnn(-c3cccnc3)c2n1 (stereo not shown) [Example 9, 4-(2,3-Dihydro-1-benzofuran-7-yl)-2-({[6-ethyl-1-(3-pyridinyl)-1H-pyrazolo[3,4-d]pyrimidin-4-yl]amino}methyl)-1,1,1-trifluoro-4-methyl-2-pentanol]"
11,< 100,"CCc1nc(NCC(O)(CC(C)(C)c2cccc3c2OCC3)C(F)(F)F)c2cnn(-c3ccncc3)c2n1 (stereo not shown) [Example 10, 4-(2,3-Dihydro-1-benzofuran-7-yl)-2-({[6-ethyl-1-(4-pyridinyl)-1H-pyrazolo[3,4-d]pyrimidin-4-yl]amino}methyl)-1,1,1-trifluoro-4-methyl-2-pentanol]"
12,< 100,"CCc1nc(NCC(O)(CC(C)(C)c2cccc3c2OCC3)C(F)(F)F)c2cnn(-c3ccc(F)nc3)c2n1 (stereo not shown) [Example 11, 4-(2,3-Dihydro-1-benzofuran-7-yl)-2-({[6-ethyl-1-(6-fluoro-3-pyridinyl)-1H-pyrazolo[3,4-d]pyrimidin-4-yl]amino}methyl)-1,1,1-trifluoro-4-methyl-2-pentanol]"
13,< 100,"CCc1nc(NCC(O)(CC(C)(C)c2cccc3c2OCC3)C(F)(F)F)c2cnn(-c3ccsc3)c2n1 (stereo not shown) [Example 12, 4-(2,3-Dihydro-1-benzofuran-7-yl)-2-({[6-ethyl-1-(3-thienyl)-1H-pyrazolo[3,4-d]pyrimidin-4-yl]amino}methyl)-1,1,1-trifluoro-4-methyl-2-pentanol]"
14,< 100,"COc1ccc(F)cc1C(C)(C)CC(O)(CNc1nc(C)nc2c1cnn2-c1ccccc1)C(F)(F)F (stereo not shown) [Example 13, 1,1,1-Trifluoro-4-[5-fluoro-2-(methyloxy)phenyl]-4-methyl-2-{[(6-methyl-1-phenyl-1H-pyrazolo[3,4-d]pyrimidin-4-yl)amino]methyl}-2-pentanol]"
15,< 100,"COc1ccc(F)cc1C(C)(C)CC(O)(CNc1nc(C)nc2c1cnn2-c1ccccc1F)C(F)(F)F (stereo not shown) [Example 14, 1,1,1-Trifluoro-4-[5-fluoro-2-(methyloxy)phenyl]-2-({[1-(2-fluorophenyl)-6-methyl-1H-pyrazolo[3,4-d]pyrimidin-4-yl]amino}methyl)-4-methyl-2-pentanol]"
16,< 100,"COc1ccc(F)cc1C(C)(C)CC(O)(CNc1nc(C)nc2c1cnn2-c1ccc(F)cc1)C(F)(F)F (stereo not shown) [Example 15, 1,1,1-Trifluoro-4-[5-fluoro-2-(methyloxy)phenyl]-2-({[1-(4-fluorophenyl)-6-methyl-1H-pyrazolo[3,4-d]pyrimidin-4-yl]amino}methyl)-4-methyl-2-pentanol]"
17,< 100,"COc1ccc(F)cc1C(C)(C)CC(O)(CNc1nc(C)nc2c1cnn2-c1ccc(F)cc1F)C(F)(F)F (stereo not shown) [Example 16, 2-({[1-(2,4-Difluorophenyl)-6-methyl-1H-pyrazolo[3,4-d]pyrimidin-4-yl]amino}methyl)-1,1,1-trifluoro-4-[5-fluoro-2-(methyloxy)phenyl]-4-methyl-2-pentanol]"
18,< 100,"COc1ccc(F)cc1C(C)(C)CC(O)(CNc1nc(C)nc2c1cnn2-c1cccnc1)C(F)(F)F (stereo not shown) [Example 17, 1,1,1-Trifluoro-4-[5-fluoro-2-(methyloxy)phenyl]-4-methyl-2-({[6-methyl-1-(3-pyridinyl)-1H-pyrazolo[3,4-d]pyrimidin-4-yl]amino}methyl)-2-pentanol]"
19,< 100,"COc1ccc(F)cc1C(C)(C)CC(O)(CNc1nc(C)nc2c1cnn2-c1ccncc1)C(F)(F)F (stereo not shown) [Example 18, 1,1,1-Trifluoro-4-[5-fluoro-2-(methyloxy)phenyl]-4-methyl-2-({[6-methyl-1-(4-pyridinyl)-1H-pyrazolo[3,4-d]pyrimidin-4-yl]amino}methyl)-2-pentanol]"
20,< 100,"COc1ccc(F)cc1C(C)(C)CC(O)(CNc1nc(C)nc2c1cnn2-c1ccsc1)C(F)(F)F (stereo not shown) [Example 19, 1,1,1-Trifluoro-4-[5-fluoro-2-(methyloxy)phenyl]-4-methyl-2-({[6-methyl-1-(3-thienyl)-1H-pyrazolo[3,4-d]pyrimidin-4-yl]amino}methyl)-2-pentanol]"
21,< 100,"COc1ccc(F)cc1C(C)(C)CC(O)(CNc1nc(C)nc2c1cnn2-c1ccc(F)nc1)C(F)(F)F (stereo not shown) [Example 20, 1,1,1-Trifluoro-4-[5-fluoro-2-(methyloxy)phenyl]-2-({[1-(6-fluoro-3-pyridinyl)-6-methyl-1H-pyrazolo[3,4-d]pyrimidin-4-yl]amino}methyl)-4-methyl-2-pentanol]"
22,< 100,"COc1ccc(F)cc1C(C)(C)CC(O)(CNc1nc(C)nc2c1cnn2-c1ccc(C#N)cc1)C(F)(F)F (stereo not shown) [Example 21, 4-(4-{[4-[5-Fluoro-2-(methyloxy)phenyl]-2-hydroxy-4-methyl-2-(trifluoromethyl)pentyl]amino}-6-methyl-1H-pyrazolo[3,4-d]pyrimidin-1-yl)benzonitrile]"
23,< 100,"CCOC(=O)c1cccc(-n2ncc3c(NCC(O)(CC(C)(C)c4cc(F)ccc4OC)C(F)(F)F)nc(C)nc32)c1 (stereo not shown) [Example 22, Ethyl 3-(4-{[4-[5-fluoro-2-(methyloxy)phenyl]-2-hydroxy-4-methyl-2-(trifluoromethyl)pentyl]amino}-6-methyl-1H-pyrazolo[3,4-d]pyrimidin-1-yl)benzoate]"
24,< 100,"COC(=O)c1cccc(-n2ncc3c(NCC(O)(CC(C)(C)c4cc(F)ccc4OC)C(F)(F)F)nc(C)nc32)c1 (stereo not shown) [Example 23, Methyl 3-(4-{[4-[5-fluoro-2-(methyloxy)phenyl]-2-hydroxy-4-methyl-2-(trifluoromethyl)pentyl]amino}-6-methyl-1H-pyrazolo[3,4-d]pyrimidin-1-yl)benzoate]"
25,< 100,"CCc1nc(NCC(O)(CC(C)(C)c2cc(F)ccc2OC)C(F)(F)F)c2cnn(-c3ccc(F)cc3)c2n1 (stereo not shown) [Example 24, 2-({[6-Ethyl-1-(4-fluorophenyl)-1H-pyrazolo[3,4-d]pyrimidin-4-yl]amino}methyl)-1,1,1-trifluoro-4-[5-fluoro-2-(methyloxy)phenyl]-4-methyl-2-pentanol]"
